Columns and labels:
[1] = system: Sarcoma-180 cells; test: Inhibitory effect on differentiation of subcutaneously transplanted Sarcoma-180 cells in ICR mice; format: in vivo; settings: cisplatin 20 mg/m^2, 12 animals per group, average of two tests
Description: A sarcoma-180 cell suspension having a cell concentration of 2×10^7 cells/ml was transplanted by subcutaneous injection into the inguinal region of all the groups excluding the normal group, thereby inducing solid cancer.
On the final day of the test, the animals were biopsied, and the number of animals in which sarcoma-180 cells stably grew was measured and used as an anticancer index. The same test was carried out twice, and the two measurements were averaged.

[2] = Solubility of hydroxychloroquine (statement); format: physicochemical

solubility at room temperature (in words) [2] | Compound | number of animals in which cancer cells were observed in the inguinal region by biopsy [1]
– | N.N.[Cl][Pt][Cl] [cisplatin, Cisplatin] | 4.5 animals
insoluble at room temperature | CCN(CCO)CCCC(C)Nc1ccnc2cc(Cl)ccc12 (centres unmarked) [hydroxychloroquine] | –

From patent US8506973B2, “Injectable anticancer composition for local administration containing hydroxychloroquine” (priority 2009, dated 2013)
